In US5011831A, “Derivatives of quinolinecarboxylic acid” (Nippon Shinyaku Co. Ltd., priority 1987, dated 1991):
Values after ≈ are worked out from the molar mass of the structure shown. Like-named read-outs stand apart in the source and are kept apart here.

Legend:
P. aeruginosa E-2 [1] = assay: Therapeutic effect on infections in mice (Table 3); assay type: in vivo, ddY strain male mice; settings: P. aeruginosa E-2, 7.5×10^4 CFU/mouse i.p.; drug orally once 2 hours after inoculation; survival after one week, Probit
Method: (§1) Test method: E. Coli KC-14 and P. aeruginosa E-2 were suspended in 5% mucin and 0.5 ml of the suspension was injected intraperitoneally to ddY strain male mice (body weight: ca. 20 g; four weeks age; 10 mice per group). The amount of the bacteria inoculated was 5.1×10^4 CFU/mouse for E. coli and 7.5×10^4 CFU/mouse for P. aeruginosa. Drug was given orally once after 2 hours of inoculation and, out of the survival rate after one week, ED50 was calculated by a Probit method. As to a comparison/control, ofloxacin was used.

E. Coli KC-14 [2] = assay: Therapeutic effect on infections in mice (Table 3); assay type: in vivo, ddY strain male mice; settings: E. coli KC-14, 5.1×10^4 CFU/mouse i.p.; drug orally once 2 hours after inoculation; survival after one week, Probit
Method: as §1

[3] = system: Streptococcus pyogenes S-23; assay: MIC, agar plate dilution method; assay type: cell-based
Method: (§2) Test Method: In accordance with a standard method by Japan Chemotherapeutic Society [Chemotherapy, 29(1), pages 76-79, 1981], agar plate dilution method was used and the MIC was measured. Thus, bouillon for measuring sensitivity was used and the bacterial liquid cultured at 37° C. for 18 hours was diluted to an extent of 10^6 CFU/ml using said medium. This was inoculated to an agar medium containing drug for measuring sensitivity using a microplanter, cultured at 37° C. for 18 hours, and MIC was measured. Ofloxacin was used for comparison/control.
(§3) The above described test was additionally conducted on the compounds of the examples described below using the same microorganisms.

[4] = system: Pseudomonas aeruginosa IFO-3445; assay: MIC, agar plate dilution method; assay type: cell-based
Method: as §2, §3

[5] = system: Klebsiella pneumoniae NCTC 9632; assay: MIC, agar plate dilution method; assay type: cell-based
Method: as §2, §3

[6] = system: Escherichia coli N1HJ JC-2; assay: MIC, agar plate dilution method; assay type: cell-based
Method: as §2, §3

[7] = system: Proteus mirabilis IFO 3849; assay: MIC, agar plate dilution method; assay type: cell-based; settings: IFO3849, Table 1, 10^6 CFU/ml, 37° C., 18 hours
Method: as §2, §3

[8] = system: Streptococcus pneumoniae Type I; assay: MIC, agar plate dilution method; assay type: cell-based
Method: as §2, §3

[9] = system: Shigella flexneri 2a EW-10; assay: MIC, agar plate dilution method; assay type: cell-based
Method: as §2, §3

[10] = system: Staphylococcus aureus 209-P JC-1; assay: MIC, agar plate dilution method; assay type: cell-based
Method: as §2, §3

[11] = system: Bacillus subtilis ATCC 6633; assay: MIC, agar plate dilution method; assay type: cell-based
Method: as §2, §3

[12] = system: Serratia marcescens IFO 3736; assay: MIC, agar plate dilution method; assay type: cell-based
Method: as §2, §3

P. aeruginosa E-2 [13] = assay: Therapeutic effect on infections in mice, similar test (Table 4); assay type: in vivo, ddY strain male mice; settings: P. aeruginosa E-2, 1.25×10^5 cfu/mouse
Method: as §1
(§4) A similar test was conducted by inoculating E. coli KC-14 (2.5×10^5 cfu/mouse) and P. aeruginosa E-2 (1.25×10^5 cfu/mouse) and the result is given in Table 4.

E. Coli KC-14 [14] = assay: as above; assay type: in vivo, ddY strain male mice; settings: E. coli KC-14, 2.5×10^5 cfu/mouse
Method: as §1, §4

[15] = S23, Table 1, 10^6 CFU/ml, 37° C., 18 hours
[16] = IFO3445, Table 1, 10^6 CFU/ml, 37° C., 18 hours
[17] = NCTC9632, Table 1, 10^6 CFU/ml, 37° C., 18 hours
[18] = Table 1, 10^6 CFU/ml, 37° C., 18 hours
[19] = 2AEW10, Table 1, 10^6 CFU/ml, 37° C., 18 hours
[20] = ATCC6633, Table 1, 10^6 CFU/ml, 37° C., 18 hours
[21] = IFO3736, Table 1, 10^6 CFU/ml, 37° C., 18 hours
[22] = IFO3445, 18 h, Table 2, same microorganisms as Table 1
[23] = NCTC9632, 18 h, Table 2, same microorganisms as Table 1
[24] = N1HJJC2, 18 h, Table 2, same microorganisms as Table 1, read-out: MIC
[25] = 18 h, Table 2, same microorganisms as Table 1
[26] = 2AEW10, 18 h, Table 2, same microorganisms as Table 1
[27] = ATCC6633, 18 h, Table 2, same microorganisms as Table 1
[28] = IFO3736, 18 h, Table 2, same microorganisms as Table 1

## CC1COc2c(N3CCN(C)CC3)c(F)cc3c(=O)c(C(=O)O)cn1c23 (racemic) [Ofloxacin, ofloxacin, reference compound]
P. aeruginosa E-2 [1]
  ED50: 0.692 mg/mouse
E. Coli KC-14 [2]
  ED50: 0.011 mg/mouse
[3]; [15]
  MIC: 1.56 µg/mL (≈ 4.32 µM)
[4]; [16]
  MIC: 1.56 µg/mL (≈ 4.32 µM)
[5]; [17]
  MIC: 0.05 µg/mL (≈ 0.138 µM)
[6]; N1HJJC2, Table 1, 10^6 CFU/ml, 37° C., 18 hours, read-out: MIC
  MIC: 0.1 µg/mL (≈ 0.277 µM)
[7]
  MIC: 0.39 µg/mL (≈ 1.08 µM)
[8]; [18]
  MIC: 1.56 µg/mL (≈ 4.32 µM)
[9]; [19]
  MIC: 0.025 µg/mL (≈ 0.0692 µM)
[10]; [18]
  MIC: 0.39 µg/mL (≈ 1.08 µM)
[11]; [20]
  MIC: 0.1 µg/mL (≈ 0.277 µM)
[12]; [21]
  MIC: 0.78 µg/mL (≈ 2.16 µM)
P. aeruginosa E-2 [13]
  ED50: 0.521 mg/mouse
E. Coli KC-14 [14]
  ED50: 0.052 mg/mouse

## CCOC(=O)c1c2n(c3c(F)c(N4CCNCC4)c(F)cc3c1=O)C(C)S2 (centres unmarked) [Example 1, Ethyl 6,8-difluoro-1-methyl-4-oxo-7-(1-piperazinyl)-4H-[1,3]thiazeto[3,2-a]quinoline-3-carboxyate]
P. aeruginosa E-2 [1]
  ED50: 0.09 mg/mouse
E. Coli KC-14 [2]
  ED50: 0.0046 mg/mouse

## CC1Sc2c(C(=O)O)c(=O)c3cc(F)c(N4CCNCC4)c(F)c3n21 (centres unmarked) [Example 2, 6,8-Difluoro-1-methyl-4-oxo-7-(1-piperazinyl)-4H-[1,3]thiazeto[3,2-a]quinoline-3-carboxylic acid]
P. aeruginosa E-2 [1]
  ED50: 0.154 mg/mouse
E. Coli KC-14 [2]
  ED50: 0.0078 mg/mouse
[3]; [15]
  MIC: 0.39 µg/mL (≈ 1.06 µM)
[4]; [16]
  MIC: 0.1 µg/mL (≈ 0.272 µM)
[5]; [17]
  MIC: 0.0125 µg/mL (≈ 0.034 µM)
[6]; N1HJJC2, 18 h
  MIC: 0.0125 µg/mL (≈ 0.034 µM)
[7]
  MIC: 0.025 µg/mL (≈ 0.068 µM)
[8]; [18]
  MIC: 0.39 µg/mL (≈ 1.06 µM)
[9]; [19]
  MIC: ≤ 0.00625 µg/mL
[10]; [18]
  MIC: 0.1 µg/mL (≈ 0.272 µM)
[11]; [20]
  MIC: 0.05 µg/mL (≈ 0.136 µM)
[12]; [21]
  MIC: 0.1 µg/mL (≈ 0.272 µM)
P. aeruginosa E-2 [13]
  ED50: 0.156 mg/mouse
E. Coli KC-14 [14]
  ED50: 0.013 mg/mouse

## CC1Sc2c(C(=O)O)c(=O)c3cc(F)c(N4CCN(C)CC4)c(F)c3n21 (centres unmarked) [Example 4, 6,8-Difluoro-1-methyl-7-(4-methyl-1-piperazinyl)-4-oxo-[1,3]thiazeto[3,2-a]quinoline-3-carboxylic acid]
[3]; S23, 18 h, Table 2, same microorganisms as Table 1
  MIC: 0.39 µg/mL (≈ 1.02 µM)
[4]; [22]
  MIC: 0.2 µg/mL (≈ 0.524 µM)
[5]; [23]
  MIC: 0.025 µg/mL (≈ 0.0655 µM)
[6]; [24]
  MIC: 0.05 µg/mL (≈ 0.131 µM)
[8]; [25]
  MIC: 0.39 µg/mL (≈ 1.02 µM)
[9]; [26]
  MIC: 0.0125 µg/mL (≈ 0.0328 µM)
[10]; [25]
  MIC: 0.2 µg/mL (≈ 0.524 µM)
[11]; [27]
  MIC: 0.05 µg/mL (≈ 0.131 µM)
[12]; [28]
  MIC: 0.2 µg/mL (≈ 0.524 µM)
P. aeruginosa E-2 [13]
  ED50: 0.177 mg/mouse
E. Coli KC-14 [14]
  ED50: 0.011 mg/mouse

## O=C(O)c1c2n(c3c(F)c(N4CCNCC4)c(F)cc3c1=O)CS2 [Example 5, 6,8-Difluoro-4-oxo-7-(1-piperazinyl)-4-oxo-4H-[1,3]thiazeto[3,2-a]quinoline-3-carboxylic acid]
[4]; [22]
  MIC: 0.2 µg/mL (≈ 0.566 µM)
[5]; [23]
  MIC: 0.025 µg/mL (≈ 0.0708 µM)
[6]; [24]
  MIC: 0.025 µg/mL (≈ 0.0708 µM)
[9]; [26]
  MIC: 0.0125 µg/mL (≈ 0.0354 µM)
[10]; [25]
  MIC: 0.1 µg/mL (≈ 0.283 µM)
[11]; [27]
  MIC: 0.1 µg/mL (≈ 0.283 µM)
[12]; [28]
  MIC: 0.05 µg/mL (≈ 0.142 µM)

## CN1CCN(c2c(F)cc3c(=O)c(C(=O)O)c4n(c3c2F)CS4)CC1 [Example 7, 6,8-Difluoro-7-(4-methyl-1-piperazinyl)-4-oxo-4H-[1,3]thiazeto[3,2-a]quinoline-3-carboxylic acid]
[4]; [22]
  MIC: 0.39 µg/mL (≈ 1.06 µM)
[5]; [23]
  MIC: 0.0125 µg/mL (≈ 0.034 µM)
[6]; [24]
  MIC: 0.05 µg/mL (≈ 0.136 µM)
[9]; [26]
  MIC: 0.025 µg/mL (≈ 0.068 µM)
[10]; [25]
  MIC: 0.2 µg/mL (≈ 0.544 µM)
[11]; [27]
  MIC: 0.05 µg/mL (≈ 0.136 µM)
[12]; [28]
  MIC: 0.1 µg/mL (≈ 0.272 µM)
P. aeruginosa E-2 [13]
  ED50: 0.263 mg/mouse
E. Coli KC-14 [14]
  ED50: 0.014 mg/mouse

## NC1CCN(c2c(F)cc3c(=O)c(C(=O)O)c4n(c3c2F)CS4)C1 (centres unmarked) [Example 9, 7-(3-Amino-1-pyrrolidinyl)-6,8-difluoro-4-oxo-4H-[1,3]thiazeto[3,2-a]quinoline-3-carboxylic acid]
[4]; [22]
  MIC: 0.0125 µg/mL (≈ 0.0354 µM)
[5]; [23]
  MIC: 0.0125 µg/mL (≈ 0.0354 µM)
[6]; [24]
  MIC: 0.0125 µg/mL (≈ 0.0354 µM)
[9]; [26]
  MIC: ≤ 0.00625 µg/mL
[10]; [25]
  MIC: 0.025 µg/mL (≈ 0.0708 µM)
[11]; [27]
  MIC: 0.1 µg/mL (≈ 0.283 µM)
[12]; [28]
  MIC: 0.1 µg/mL (≈ 0.283 µM)

## O=C(O)c1c2n(c3c(F)c(N4CCNCC4)c(F)cc3c1=O)C(c1ccccc1)S2 (centres unmarked) [Example 21, 6,8-Difluoro-4-oxo-1-phenyl-7-(1-piperazinyl)-4H-[1,3]thiazeto[3,2-a]quinoline-3-carboxylic acid]
[4]; [22]
  MIC: 0.39 µg/mL (≈ 0.908 µM)
[5]; [23]
  MIC: ≤ 0.00625 µg/mL
[6]; [24]
  MIC: 0.1 µg/mL (≈ 0.233 µM)
[9]; [26]
  MIC: 0.05 µg/mL (≈ 0.116 µM)
[10]; [25]
  MIC: 0.2 µg/mL (≈ 0.466 µM)
[11]; [27]
  MIC: 0.1 µg/mL (≈ 0.233 µM)
[12]; [28]
  MIC: 1.56 µg/mL (≈ 3.63 µM)

## CCOC(=O)c1c2n(c3c(F)c(N4CCNCC4)c(F)cc3c1=O)C(c1ccc(F)cc1)S2 (centres unmarked) [Example 25, Ethyl 6,8-difluoro-1-(4-fluorophenyl)-4-oxo-7-(1-piperazinyl)-4H-[1,3]thiazeto[3,2-a]quinoline-3-carboxylate]
[4]; [22]
  MIC: 0.39 µg/mL (≈ 0.82 µM)
[6]; [24]
  MIC: 0.1 µg/mL (≈ 0.21 µM)
[9]; [26]
  MIC: 0.05 µg/mL (≈ 0.105 µM)
[10]; [25]
  MIC: 0.2 µg/mL (≈ 0.421 µM)
[11]; [27]
  MIC: 0.1 µg/mL (≈ 0.21 µM)
[12]; [28]
  MIC: 1.56 µg/mL (≈ 3.28 µM)
